The text below walks through data of patent publication US10183950B2, “Thienopyrimidine inhibitors of atypical protein kinase C” (Cancer Research Technology Limited, priority 2011, dated 2019).

Molecules are shown by their SMILES.

This test concerns the target T1, full-length human PKCι (Homo sapiens, UniProt P41743).
T1 construct: Recombinant, full-length human PKCι expressed in Sf21 insect cells is also commercially available; purchased; host or cells: Sf21 insect cells
T1 sequence (P41743 1-596): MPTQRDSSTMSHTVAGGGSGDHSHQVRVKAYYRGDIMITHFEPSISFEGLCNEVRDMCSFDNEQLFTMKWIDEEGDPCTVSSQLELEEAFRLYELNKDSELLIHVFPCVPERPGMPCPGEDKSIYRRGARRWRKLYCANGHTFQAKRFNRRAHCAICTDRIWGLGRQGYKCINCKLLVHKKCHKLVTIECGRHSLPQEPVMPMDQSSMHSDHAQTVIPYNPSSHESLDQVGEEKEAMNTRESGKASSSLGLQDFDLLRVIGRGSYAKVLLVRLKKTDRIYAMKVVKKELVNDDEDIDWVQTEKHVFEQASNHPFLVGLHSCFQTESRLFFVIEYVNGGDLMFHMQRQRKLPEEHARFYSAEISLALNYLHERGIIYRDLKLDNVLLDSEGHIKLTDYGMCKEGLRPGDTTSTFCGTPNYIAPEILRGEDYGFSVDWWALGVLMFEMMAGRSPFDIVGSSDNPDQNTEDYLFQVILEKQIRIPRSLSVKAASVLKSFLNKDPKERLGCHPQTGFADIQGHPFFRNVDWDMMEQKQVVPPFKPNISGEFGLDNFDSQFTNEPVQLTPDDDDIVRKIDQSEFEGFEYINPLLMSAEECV
The test is described as follows: PKCι IC50 IMAP fluorescence polarisation assay, full-length enzyme. Format: biochemical. As to conditions: full length PKCi at 15 μM ATP; read-out: IC50 in IMAP assay against full length PKCi. For orientation: Fluorescence polarisation rises when a labelled molecule tumbles more slowly, as on binding a larger partner.
Turning to `c1cc(-c2nc(N[C@@H]3CCNC3)c3sccc3n2)cc(Nc2ccc(N3CCOCC3)cn2)n1` [compound 602, {2-[2-(5-Morpholin-4-yl-pyridin-2-ylamino)-pyridin-4-yl]-thieno[3,2-d]pyrimidin-4-yl}-(R)-pyrrolidin-3-yl-amine], the IC50 (usually the point on the concentration scale where inhibition reaches its midpoint) lay within 100 to 1000 nM.

Turning to `CN1CCN(c2ccc(Nc3cc(-c4nc(N[C@@H]5CCNC5)c5sccc5n4)ccn3)nc2)CC1` [compound 603, (2-{2-[5-(4-Methyl-piperazin-1-yl)-pyridin-2-ylamino]-pyridin-4-yl}-thieno[3,2-d]pyrimidin-4-yl)-(R)-pyrrolidin-3-yl-amine], the half-inhibitory concentration (IC50) lay within 100 to 1000 nM.

In the case of `N#Cc1ccc(Nc2cc(-c3nc(N[C@@H]4CCNC4)c4sccc4n3)ccn2)nc1` [compound 604, 6-{4-[4-((R)-Pyrrolidin-3-ylamino)-thieno[3,2-d]pyrimidin-2-yl]-pyridin-2-ylamino}-nicotinonitrile], the IC50 was in the range of 100 to 1000 nM.

Regarding `CN1CCN(c2cccc(Nc3cc(-c4nc(N[C@@H]5CCNC5)c5sccc5n4)ccn3)c2)CC1` [compound 605, (2-{2-[3-(4-Methyl-piperazin-1-yl)-phenylamino]-pyridin-4-yl}-thieno[3,2-d]pyrimidin-4-yl)-(R)-pyrrolidin-3-yl-amine], the 50% inhibitory concentration (IC50) was 100 to 1000 nM.

Turning to `N#Cc1cccc(Nc2cc(-c3nc(N[C@@H]4CCNC4)c4sccc4n3)ccn2)c1` [compound 606, 3-{4-[4-((R)-Pyrrolidin-3-ylamino)-thieno[3,2-d]pyrimidin-2-yl]-pyridin-2-ylamino}-benzonitrile], the half-inhibitory concentration (IC50) was in the range of 1000 to 10000 nM.

For `N#Cc1ccc(Nc2cc(-c3nc(N[C@@H]4CCNC4)c4sccc4n3)ccn2)cc1` [compound 607, 4-{4-[4-((R)-Pyrrolidin-3-ylamino)-thieno[3,2-d]pyrimidin-2-yl]-pyridin-2-ylamino}-benzonitrile], the IC50 was 1000 to 10000 nM.

Regarding `c1cc(-c2nc(N[C@@H]3CCNC3)c3sccc3n2)cc(Nc2ccc(N3CCCCC3)cc2)n1` [compound 608, {2-[2-(4-Piperidin-1-yl-phenylamino)-pyridin-4-yl]-thieno[3,2-d]pyrimidin-4-yl}-(R)-pyrrolidin-3-yl-amine], the IC50 lay within 100 to 1000 nM.

On to `CN(C)S(=O)(=O)c1ccc(Nc2cc(-c3nc(N[C@@H]4CCNC4)c4sccc4n3)ccn2)cc1` [compound 610, N,N-Dimethyl-4-{4-[4-((R)-pyrrolidin-3-ylamino)-thieno[3,2-d]pyrimidin-2-yl]-pyridin-2-ylamino}-benzenesulfonamide], for which the IC50 lay within 1000 to 10000 nM.

Take `c1cc(-c2nc(N[C@@H]3CCNC3)c3sccc3n2)cc(Nc2ccc(CN3CCCC3)cc2)n1` [compound 611, (R)-Pyrrolidin-3-yl-{2-[2-(4-pyrrolidin-1-ylmethyl-phenylamino)-pyridin-4-yl]-thieno[3,2-]pyrimidin-4-yl}-amine]: the IC50 fell in the range of 1000 to 10000 nM.

On to `CN1CCN(C(=O)c2ccc(Nc3cc(-c4nc(N[C@@H]5CCNC5)c5sccc5n4)ccn3)cc2)CC1` [compound 613, (4-Methyl-piperazin-1-yl)-(4-{4-[4-((R)-pyrrolidin-3-ylamino)-thieno[3,2-d]pyrimidin-2-yl]-pyridin-2-ylamino}-phenyl)-methanone], for which the IC50 fell in the range of 100 to 1000 nM.

`c1cn(Cc2ccc(Nc3cc(-c4nc(N[C@@H]5CCNC5)c5sccc5n4)ccn3)cc2)cn1` [compound 614, {2-[2-(4-Imidazol-1-ylmethyl-phenylamino)-pyridin-4-yl]-thieno[3,2-d]pyrimidin-4-yl}-(R)-pyrrolidin-3-yl-amine]: the concentration for half-maximal inhibition (IC50) lay in the range of 100 to 1000 nM.

As to `O=C(Nc1cc(-c2nc(N[C@@H]3CCNC3)c3sccc3n2)ccn1)c1cnccn1` [compound 615, Pyrazine-2-carboxylic acid {4-[4-((R)-pyrrolidin-3-ylamino)-thieno[3,2-d]pyrimidin-2-yl]-pyridin-2-yl}-amide], the IC50 lay within 1000 to 10000 nM.

`c1csc(-c2ccc(Nc3cc(-c4nc(N[C@@H]5CCNC5)c5sccc5n4)ccn3)cc2)c1` [compound 616, (R)-Pyrrolidin-3-yl-{2-[2-(4-thiophen-2-yl-phenylamino)-pyridin-4-yl]-thieno[3,2-d]pyrimidin-4-yl}-amine]: the IC50 fell in the range of 100 to 1000 nM.

In the case of `c1cc(-c2nc(N[C@@H]3CCNC3)c3sccc3n2)cc(Nc2ccc(-c3ccsc3)cc2)n1` [compound 617, (R)-Pyrrolidin-3-yl-{2-[2-(4-thiophen-3-yl-phenylamino)-pyridin-4-yl]-thieno[3,2-d]pyrimidin-4-yl}-amine], the IC50 was in the range of 100 to 1000 nM.

On to `O=C(Nc1cc(-c2nc(N[C@@H]3CCNC3)c3sccc3n2)ccn1)c1ccc(F)cc1` [compound 618, 4-Fluoro-N-{4-[4-((R)-pyrrolidin-3-ylamino)-thieno[3,2-d]pyrimidin-2-yl]-pyridin-2-yl}-benzamide], for which the IC50 lay in the range of 100 to 1000 nM.

As for `Fc1c(-c2nc(N[C@@H]3CCNC3)c3sccc3n2)ccnc1Nc1ccccc1` [compound 619, [2-(3-Fluoro-2-phenylamino-pyridin-4-yl)-thieno[3,2-d]pyrimidin-4-yl]-(R)-pyrrolidin-3-yl-amine], the IC50 lay within 10000 to 40000 nM.

As to `CN1CCN(c2ccc(C(=O)Nc3cc(-c4nc(N[C@@H]5CCNC5)c5sccc5n4)ccn3)cc2)CC1` [compound 620, 4-(4-Methyl-piperazin-1-yl)-N-{4-[4-((R)-pyrrolidin-3-ylamino)-thieno[3,2-d]pyrimidin-2-yl]-pyridin-2-yl}-benzamide], the IC50 was 100 to 1000 nM.

For `O=C(Nc1cc(-c2nc(N[C@@H]3CCNC3)c3sccc3n2)ccn1)c1ccc(N2CCOCC2)cc1` [compound 621, 4-Morpholin-4-yl-N-{4-[4-((R)-pyrrolidin-3-ylamino)-thieno[3,2-d]pyrimidin-2-yl]-pyridin-2-yl}-benzamide], the IC50 lay within 100 to 1000 nM.

Consider `O=S(=O)(Nc1cc(-c2nc(N[C@@H]3CCNC3)c3sccc3n2)ccn1)C1CC1` [compound 622, Cyclopropanesulfonic acid {4-[4-((R)-pyrrolidin-3-ylamino)-thieno[3,2-d]pyrimidin-2-yl]-pyridin-2-yl}-amide], for which the IC50 lay within 10000 to 40000 nM.

`c1cc(-c2nc(N[C@@H]3CCNC3)c3sccc3n2)cc(NC2CCCCC2)n1` [compound 623, [2-(2-Cyclohexylamino-pyridin-4-yl)-thieno[3,2-d]pyrimidin-4-yl]-(R)-pyrrolidin-3-yl-amine]: the 50% inhibitory concentration (IC50) is 10000 to 40000 nM.

`CS(=O)(=O)Nc1cc(-c2nc(N[C@@H]3CCNC3)c3sccc3n2)ccn1` [compound 624, N-{4-[4-((R)-Pyrrolidin-3-ylamino)-thieno[3,2-d]pyrimidin-2-yl]-pyridin-2-yl}-methanesulfonamide]: the half-inhibitory concentration (IC50) lay in the range of 10000 to 40000 nM.

Consider `c1cc(-c2nc(N[C@@H]3CCNC3)c3sccc3n2)cc(NC2CCOCC2)n1` [compound 625, (R)-Pyrrolidin-3-yl-{2-[2-(tetrahydro-pyran-4-ylamino)-pyridin-4-yl]-thieno[3,2-d]pyrimidin-4-yl}-amine], for which the IC50 is 10000 to 40000 nM.

Consider `CC(C)Nc1cc(-c2nc(N[C@@H]3CCNC3)c3sccc3n2)ccn1` [compound 626, [2-(2-Isopropylamino-pyridin-4-yl)-thieno[3,2-d]pyrimidin-4-yl]-(R)-pyrrolidin-3-yl-amine], for which the IC50 was in the range of 1000 to 10000 nM.

With `O=C(Nc1cc(-c2nc(N[C@H]3CNC[C@@H]3O)c3sccc3n2)ccn1)c1cccs1` [compound 627, Thiophene-2-carboxylic acid {4-[4-((3S,4S)-4-hydroxy-pyrrolidin-3-ylamino)-thieno[3,2-d]pyrimidin-2-yl]-pyridin 2-yl}-amide], the IC50 lay in the range of 1000 to 10000 nM.

Regarding `CN1CC[C@@H](Nc2nc(-c3ccnc(NC(=O)c4cccs4)c3)nc3ccsc23)C1` [compound 628, Thiophene-2-carboxylic acid {4-[4-((R)-1-methyl-pyrrolidin-3-ylamino)-thieno[3,2-d]pyrimidin-2-yl]-pyridin-2-yl}-amide], the IC50 fell in the range of 1000 to 10000 nM.

Turning to `NC(=O)CN1C[C@H](Nc2nc(-c3ccnc(NC(=O)c4cccs4)c3)nc3ccsc23)[C@@H](O)C1` [compound 629, Thiophene-2-carboxylic acid {4-[4-((3S,4S)-1-carbamoylmethyl-4-hydroxy-pyrrolidin-3-ylamino)-thieno[3,2-d]pyrimidin-2-yl]-pyridin-2-yl}-amide], the IC50 is 1000 to 10000 nM.

On to `N[C@H](CNc1nc(-c2ccnc(NC(=O)c3cccs3)c2)nc2ccsc12)Cc1ccc(C(F)(F)F)cc1` [compound 630, Thiophene-2-carboxylic acid (4-{4-[(S)-2-amino-3-(4-trifluoromethyl-phenyl)-propylamino]-thieno[3,2-d]pyrimidin-2-yl}-pyridin-2-yl)-amide], for which the IC50 was in the range of 10000 to 40000 nM.

Consider `NC(=O)CN1CC[C@@H](Nc2nc(-c3ccnc(Nc4ccccc4)c3)nc3ccsc23)C1` [compound 631, 2-{(R)-3-[2-(2-Phenylamino-pyridin-4-yl)-thieno[3,2-d]pyrimidin-4-ylamino]-pyrrolidin-1-yl}-acetamide], for which the IC50 lay in the range of 10000 to 40000 nM.

As for `c1cc(-c2nc(N[C@@H]3CCNC3)c3sccc3n2)cc(Sc2cc(-c3nc(N[C@@H]4CCNC4)c4sccc4n3)ccn2)n1` [compound 632], the IC50 was in the range of 1000 to 10000 nM.

Take `Cc1[nH]ncc1-c1nc(N[C@@H]2CCNC2)c2sccc2n1` [compound 633, [2-(5-Methyl-1H-pyrazol-4-yl)-thieno[3,2-d]pyrimidin-4-yl]-(R)-pyrrolidin-3-yl-amine]: the IC50 fell in the range of 10000 to 40000 nM.
